Experimental data taken from patent publication US20250084079A1, “COMPOSITIONS AND METHODS FOR INHIBITION OF RAS” (TheRas, Inc., priority 2022, published 2025).
Where two headings read alike, the source gives them in different places.

How the values were obtained:
[1] = biological target: T1, Avi-KRAS G12V (1-169) GppNHp/RAF1 RBD-3xFLAG (52-151) (Homo sapiens, UniProt P01116, G12V); assay: RAS-effector PPI HTRF disruption assay, Raf1-GppNHp-KRAS G12V; format: biochemical
T1 construct: 50 nM Avi-KRAS G12V (1-169) GppNHp
T1 sequence (P01116 1-169 isoform P01116-2 G12V): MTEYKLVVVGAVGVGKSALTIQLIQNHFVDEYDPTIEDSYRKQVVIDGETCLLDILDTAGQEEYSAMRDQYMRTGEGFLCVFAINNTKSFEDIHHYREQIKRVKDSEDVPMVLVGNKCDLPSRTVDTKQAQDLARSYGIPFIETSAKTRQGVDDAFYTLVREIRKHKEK
Protocol: (§1) A protein:protein interaction (PPI) Homogeneous Time Resolved Fluorescence (HTRF) assay was used to determine the effectiveness of compounds of the present disclosure in disrupting KRAS protein and effector (RAF1 or PIK3 CA) binding.
(§2) The HTRF assay used the following reagents and proteins: (i) 375 nM Avi-KRAS G12D/Q25A (1-169) GppNHp/3×FLAG-PI3KCA (157-299); (ii) 100 nM Avi-KRAS G12D (1-169) GppNHp/RAF1 RBD-3×FLAG (52-151); (iii) 50 nM Avi-KRAS G12V (1-169) GppNHp/RAF1 RBD-3×FLAG (52-151); (iv) 50 nM Avi-KRAS WT (1-169) GppNHp/RAF1 RBD-3×FLAG (52-151); and (v) 35 nM Avi-PI3K RBD CA-3×FLAG; Assay Buffer: 50 mM Tris pH 7.5, 100 mM NaCl, 5 mM MgCl2, 0.1% BSA, 0.01% Tween, 1 mM TCEP, 10% DMSO; Bead Buffer: 50 mM Tris pH 7.5, 0.01% Tween 20; Assay volume: 20 μL (384 well plate-low volume format); and Compound titration: 100-0.02 μM, 3× dilution series.
(§3) The HTRF assay employed the following protocol:
(§4) Compounds were dispensed in assay plate (384-well, Grenier Bione #784075) using Echo (model 555) with dose response settings: 200 nL final volume, titration from 100 μM as a 10-point dilution series. Protein mix was prepared in assay buffer, and dispensed on plates, 10 μL per well, then incubated for 1 h at room temperature, with 700 rpm shaking. Reagents mix was prepared and dispensed on plates, 10 μL per well, then incubated for 1 h at room temperature, with 700 rpm shaking.
(§5) Plates were analyzed on an Envision plate reader using the following setting: Excitation 320 nm, Bandwidth […]; Emission 615 nm, Bandwidth […], Gain 100%, Flashes 100, Lag 60 μs. Data was reported as percentage of activity, with DMSO as 100%. Data was plotted and analyzed using Prism 8. The SPR Kd, biochemical Raf1-KRAS G12D/G12V/WT-GppNHP and PI3KCA-KRAS G12D/Q25A-GppNHp disruption assay IC50 of selected compounds described herein are shown in Table 4.

[2] = biological target: T2, Avi-KRAS WT (1-169) GppNHp/RAF1 RBD-3xFLAG (52-151) (Homo sapiens, UniProt P01116); assay: RAS-effector PPI HTRF disruption assay, Raf1-GppNHp-KRAS WT; format: biochemical
T2 construct: 50 nM Avi-KRAS WT (1-169) GppNHp
T2 sequence (P01116 1-169 isoform P01116-2): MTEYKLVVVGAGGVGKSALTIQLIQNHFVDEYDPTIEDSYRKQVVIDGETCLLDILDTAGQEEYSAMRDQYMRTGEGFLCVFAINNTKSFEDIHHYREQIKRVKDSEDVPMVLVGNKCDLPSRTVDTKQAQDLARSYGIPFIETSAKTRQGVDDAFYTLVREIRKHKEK
Protocol: as §1, §2, §3, §4, §5

[3] = biological target: T3, Avi-KRAS G12D/Q25A (1-169) GppNHp/3xFLAG-PI3KCA (157-299) (Homo sapiens, UniProt P01116, G12D/Q25A); assay: RAS-effector PPI HTRF disruption assay, PI3KCA-GppNHp-KRAS G12D/Q25A; format: biochemical
T3 construct: 375 nM Avi-KRAS G12D/Q25A (1-169) GppNHp
T3 sequence (P01116 1-169 isoform P01116-2 G12D/Q25A): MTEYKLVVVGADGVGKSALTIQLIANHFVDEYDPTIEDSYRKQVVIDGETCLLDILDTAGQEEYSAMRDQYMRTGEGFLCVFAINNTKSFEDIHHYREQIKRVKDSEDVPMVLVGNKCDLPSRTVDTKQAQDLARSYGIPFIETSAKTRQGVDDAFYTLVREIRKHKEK
Protocol: as §1, §2, §3, §4, §5

[4] = system: pERK in GP2d cells (KRAS G12D); assay: Cell-based pERK HTRF assay in GP2d cell; settings: 60 min incubation
Protocol: A pERK assay (Perkin Elmer) was used to determine the effectiveness of compounds in disrupting KRAS G12D protein/effector signaling in cells.
On Day 1, cells (GP2d) were seeded into 96-well plates at 3×10^4 cells/well in 80 μL complete growth media (DMEM, 10% FBS).
On Day 2, cells were treated with compounds at 0.25% DMSO. The source plate was created with compounds diluted in media at 5-fold the final assay concentration. The compounds were run in a 9-point concentration curve starting at 1 μM, with a half-log dilution between concentrations. 20 μL was transferred onto the cell plates (final volume in wells was 100 μL). Plates were harvested after 60 min incubation by aspirating media and adding kit-supplied 1× supplemented lysis buffer to all wells (50 μL per well). Plates were then placed on a plate shaker and incubated at 850 rpm for an additional 30 min.
Antibody mixture solution is prepared by diluting aliquoted d2 and Eu Cryptate antibodies 1:20 in kit supplied detection buffer, mix the diluted antibodies solutions (1:1 v:v). 4 μL of this solution is then added to a 384-well detection plate (Perkin Elmer; 6008230).
Samples were homogenized by pipetting up and down and then transferred (16 μL of cell lysates) from the 96-well cell culture plate to two wells of the HTRF 384-well detection plate containing the antibody solution. Plates were centrifuged (524 g for 1 min) and allowed to incubate between 4 and 24 h at room temperature. Maximum signal is reached after 4 h incubation time and remains stable over a period of 24 hours. Therefore, readings can be made between 4 and 24 h of incubation. Plates were centrifuged again (524 g for Imin), then analyzed on the EnVision plate reader using the following settings: Excitation 320 nm, Bandwidth 75 nm; Emission 615 nm, Bandwidth 85 nm; Gain 100%; Flashes 100; Lag 60 μs.

[5] = biological target: T4, Avi-KRAS G12D (1-169) GppNHp/RAF1 RBD-3xFLAG (52-151) (Homo sapiens, UniProt P01116, G12D); assay: RAS-effector PPI HTRF disruption assay, Raf1-GppNHp-KRAS G12D; format: biochemical
T4 construct: 100 nM Avi-KRAS G12D (1-169) GppNHp
T4 sequence (P01116 1-169 isoform P01116-2 G12D): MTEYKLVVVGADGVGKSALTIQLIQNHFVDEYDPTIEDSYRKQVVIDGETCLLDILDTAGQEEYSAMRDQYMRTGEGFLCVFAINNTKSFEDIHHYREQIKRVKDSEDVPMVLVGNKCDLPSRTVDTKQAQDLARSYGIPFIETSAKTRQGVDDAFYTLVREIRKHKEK
Protocol: as §1, §2, §3, §4, §5

Row | IC50 [1] [nM] | IC50 [2] [nM] | IC50 [3] [nM] | IC50 ([4]; GP2d, 1 h) [nM] | IC50 [5] [nM] | IC50 ([4]; read-out: pERK-Gp2D-1 hr) [nM] | Compound
1 | 1000 to 10000 | 1000 to 10000 | 100 to 1000 | 100 to 1000 | 100 to 1000 | – | C[C@@H]1NCC[C@H]1Oc1nc(OC[C@@]23CCCN2C[C@H](F)C3)nc2c(F)c(-c3ccc(F)c4sc(N)nc34)c(C(F)(F)F)cc12 (atropisomer, axis not shown) [Compound 8]
2 | > 10000 | > 10000 | > 10000 | – | > 10000 | – | C[C@@H]1NCC[C@H]1Oc1nc(OC[C@@]23CCCN2C[C@H](F)C3)nc2c(F)c(-c3ccc(F)c4sc(N)nc34)c(C(F)(F)F)cc12 (atropisomer, axis not shown) [Compound 9]
3 | 1000 to 10000 | 1000 to 10000 | 100 to 1000 | – | 100 to 1000 | 100 to 1000 | Nc1nc2c(-c3c(C(F)(F)F)cc4c(O[C@@H]5CCNC5)nc(OC[C@@]56CCCN5C[C@H](F)C6)nc4c3Cl)ccc(F)c2s1 (atropisomer, axis not shown) [Compound 10]
4 | > 10000 | > 10000 | > 10000 | – | > 10000 | > 1000 | Nc1nc2c(-c3c(C(F)(F)F)cc4c(O[C@@H]5CCNC5)nc(OC[C@@]56CCCN5C[C@H](F)C6)nc4c3Cl)ccc(F)c2s1 (atropisomer, axis not shown) [Compound 11]
5 | > 10000 | > 10000 | > 10000 | – | > 10000 | > 1000 | Nc1nc2c(-c3c(C(F)(F)F)cc4c(O[C@H]5CNCC5(F)F)nc(OC[C@@]56CCCN5C[C@H](F)C6)nc4c3F)ccc(F)c2s1 (atropisomer, axis not shown) [Compound 29]
6 | 100 to 1000 | 100 to 1000 | 100 to 1000 | – | 100 to 1000 | ≤ 100 | C[C@@H]1C[C@H](Oc2nc(OC[C@@]34CCCN3C[C@H](F)C4)nc3c(F)c(-c4ccc(F)c5sc(N)c(C#N)c45)c(Cl)cc23)CN1 (atropisomer, axis not shown) [Compound 60]
7 | > 10000 | > 10000 | > 10000 | – | > 10000 | > 1000 | C[C@@H]1C[C@H](Oc2nc(OC[C@@]34CCCN3C[C@H](F)C4)nc3c(F)c(-c4ccc(F)c5sc(N)c(C#N)c45)c(Cl)cc23)CN1 (atropisomer, axis not shown) [Compound 61]
8 | > 10000 | > 10000 | > 10000 | > 1000 | > 10000 | – | N#Cc1c(N)sc2c(F)ccc(-c3c(Cl)cc4c(O[C@@H]5CNC[C@H]5F)nc(OC[C@@]56CCCN5C[C@H](F)C6)nc4c3F)c12 (atropisomer, axis not shown) [Compound 64]
9 | > 10000 | > 10000 | > 10000 | – | > 10000 | > 1000 | N#Cc1c(N)sc2c(F)ccc(-c3c(Cl)cc4c(O[C@@H]5CN[C@@H](CO)C5)nc(OC[C@@]56CCCN5C[C@H](F)C6)nc4c3F)c12 (atropisomer, axis not shown) [Compound 68]
10 | 100 to 1000 | 100 to 1000 | 100 to 1000 | – | ≤ 100 | 100 to 1000 | N#Cc1c(N)sc2c(F)ccc(-c3c(Cl)cc4c(O[C@@H]5CN[C@@H](CO)C5)nc(OC[C@@]56CCCN5C[C@H](F)C6)nc4c3F)c12 (atropisomer, axis not shown) [Compound 69]
11 | > 10000 | > 10000 | > 10000 | – | > 10000 | > 1000 | N#Cc1c(N)sc2c(F)ccc(-c3c(Cl)cc4c(O[C@H]5CCN[C@@H]5CO)nc(OC[C@@]56CCCN5C[C@H](F)C6)nc4c3F)c12 (atropisomer, axis not shown) [Compound 75]
12 | ≤ 100 | ≤ 100 | ≤ 100 | – | ≤ 100 | ≤ 100 | N#Cc1c(N)sc2c(F)ccc(-c3c(Cl)cc4c(O[C@H]5CCN[C@@H]5CO)nc(OC[C@@]56CCCN5C[C@H](F)C6)nc4c3F)c12 (atropisomer, axis not shown) [Compound 76]
13 | ≤ 100 | ≤ 100 | ≤ 100 | – | ≤ 100 | ≤ 100 | C[C@H]1NCC[C@H]1Oc1nc(OC[C@@]23CCCN2C[C@H](F)C3)nc2c(F)c(-c3ccc(F)c4sc(N)c(C#N)c34)c(C(F)(F)F)cc12 (single isomer, unassigned) [Compound 73]
14 | > 10000 | > 10000 | > 10000 | – | > 10000 | > 1000 | C[C@H]1NCC[C@H]1Oc1nc(OC[C@@]23CCCN2C[C@H](F)C3)nc2c(F)c(-c3ccc(F)c4sc(N)c(C#N)c34)c(C(F)(F)F)cc12 (single isomer, unassigned) [Compound 74]
15 | > 10000 | 1000 to 10000 | 1000 to 10000 | – | 1000 to 10000 | – | C[C@H]1CNCC1Oc1nc(OC[C@@]23CCCN2C[C@H](F)C3)nc2c(F)c(-c3ccc(F)c4sc(N)nc34)c(C(F)(F)F)cc12 (stereo partly shown) [Compound 2]
16 | > 10000 | > 10000 | > 10000 | > 1000 | > 10000 | – | C[C@H]1CNCC1Oc1nc(OC[C@@]23CCCN2C[C@H](F)C3)nc2c(F)c(-c3ccc(F)c4scnc34)c(C(F)(F)F)cc12 (stereo partly shown) [Compound 12]
17 | 1000 to 10000 | 100 to 1000 | 1000 to 10000 | ≤ 100 | 100 to 1000 | – | Nc1nc2c(-c3c(C(F)(F)F)cc4c(O[C@H]5CCNC5)nc(OC[C@@]56CCCN5C[C@H](F)C6)nc4c3F)ccc(F)c2s1 [Compound 13]
18 | > 10000 | > 10000 | > 10000 | > 1000 | > 10000 | – | C[C@@H]1CNCC1Oc1nc(OC[C@@]23CCCN2C[C@H](F)C3)nc2c(F)c(-c3ccc(F)c4scnc34)c(C(F)(F)F)cc12 (stereo partly shown) [Compound 14]
19 | 1000 to 10000 | 1000 to 10000 | 1000 to 10000 | 100 to 1000 | 100 to 1000 | – | C[C@@H]1CNCC1Oc1nc(OC[C@@]23CCCN2C[C@H](F)C3)nc2c(F)c(-c3ccc(F)c4sc(N)nc34)c(C(F)(F)F)cc12 (stereo partly shown) [Compound 15]
20 | > 10000 | 1000 to 10000 | 1000 to 10000 | – | > 10000 | – | Nc1nc2c(-c3c(C(F)(F)F)cc4c(O[C@H]5CNC[C@H]5F)nc(OC[C@@]56CCCN5C[C@H](F)C6)nc4c3F)ccc(F)c2s1 [Compound 22, 7-fluoro-4-(8-fluoro-4-(((3S,4R)-4-fluoropyrrolidin-3-yl)oxy)-2-(((2R,7aS)-2-fluorotetrahydro-1H-pyrrolizin-7a(5H)-yl)methoxy)-6-(trifluoromethyl)quinazolin-7-yl)benzo[d]thiazol-2-amine]
